Columns and labels:
axial length extension = conditions: animal experiments; cited from earlier work
progress of myopia = conditions: reported in Taiwan; cited from earlier work
[1] = system: chicken model of form-deprivation myopia; test: Axial length suppression test with chicken model of form-deprivation myopia (II), ophthalmic instillation; assay type: in vivo, chicks (white leghorn); conditions: hydroxyfasudil 500 nmol/1000 μL, 1 drop (about 5 μl) instilled once daily for 4 weeks, N = 10, * P < 0.05, t-test vs control
Text: Chicken models of form-deprivation myopia were made in the same manner as in Example 1. That is, chicks (white leghorn) 6 days of age were obtained, and one eye of each chick was covered with a mask hand-made of vinyl tape. The right eye of every chick was covered, and the left eye was used as a control. The chicks were kept under usual breeding conditions.
As a Rho kinase inhibitor, hydroxyfasudil hydrochloride (made by SIGMA; see the above formula (III); hereinafter, abbreviated to “hydroxyfasudil”) was used. Hydroxyfasudil was dissolved in BSS Plus (registered trademark, made by Alcon) so that the concentration was 10 mM, and 50 μL of this solution was diluted with saline to 1000 μL. A hydroxyfasudil solution at a concentration of 500 nmol/1000 μL was thus prepared.
To chicks to which myopia was being induced by the mask, hydroxyfasudil was instilled once daily for 4 weeks. Specifically, 1 drop (about 5 μl) of the above-mentioned hydroxyfasudil solution was instilled with use of a syringe with needle for insulin subcutaneous administration, “Low Dose” 30 G (made by Becton, Dickinson and Company). The instillation was performed to the right eye and the left eye.
To the control, BSS Plus was intravitreally injected once a week (every 7 days). Specifically, the intravitreal injection was performed to a superotemporal site about 3 mm off the corneal ring avoiding cartilage tissue of the lens and sclera with use of the above-mentioned “Low Dose”. The injection to the right eye and the left eye was performed 4 times in total.
Four weeks after the induction of myopia, the chicks were sacrificed. The eyeballs were enucleated and the right eyeballs and the left eyeballs were measured for the size with a caliper. The degree of axial myopia was evaluated based on the axial length and the greatest transverse diameter. The differences of the axial length and the greatest transverse diameter between the right eye and the left eye were calculated to indicate the degree of myopia. Between the group treated with hydroxyfasudil and the control group, the degree of myopia induction was compared.

[2] = system: chicken model of form-deprivation myopia; test: Axial length suppression test with chicken model of form-deprivation myopia (I), intravitreal injection; assay type: in vivo, chicks (white leghorn); conditions: hydroxyfasudil 20 μL intravitreally once a week (about 1 μM in the eye), four weeks after induction of myopia, N = 7, * P < 0.05 vs control
Text: Chicks (white leghorn) 6 days of age were obtained, and one eye of each chick was covered with a mask hand-made of vinyl tape. The right eye of every chick was covered, and the left eye was used as a control. The chicks were kept under usual breeding conditions.
As a Rho kinase inhibitor, Y27632 dihydrochloride (made by Wako Pure Chemical Industries; see the above formula (I); hereinafter, abbreviated to “Y27632”) and hydroxyfasudil hydrochloride (made by SIGMA; see the above formula (III); hereinafter, abbreviated to “hydroxyfasudil”) were used. Y27632 was prepared at 50 μM in saline. Hydroxyfasudil was prepared at 1 mM in saline. To the control, saline was administered.
Into the vitreous chambers of the chicks to which myopia was being induced by the mask, Y27632 or hydroxyfasudil was injected once a week (every 7 days). Specifically, to the chicks under anesthesia with Ketalar (registered trademark) and Selactar (registered trademark), injection to a site about 2 mm off the corneal ring was performed with use of a syringe for insulin injection.
To the Y27632 treatment group, 50 μL of the 50 μM Y27632 solution was intravitreally injected. Since the chick eyeball volume is about 1 mL, the final concentration of Y27632 in the eye was about 2.5 μM. To a control group not treated with Y27632, 50 μL of saline was intravitreally injected.
To the hydroxyfasudil treatment group, 20 μL of a diluted hydroxyfasudil solution prepared by diluting 1 μL of the 1 mM hydroxyfasudil solution to 20 μL was intravitreally injected. Since the chick eyeball volume is about 1 mL, the final concentration of hydroxyfasudil in the eye was about 1 μM. To a control group not treated with hydroxyfasudil, 20 μL of saline was intravitreally injected.
Four weeks after the induction of myopia, the chicks were sacrificed. The eyeballs were enucleated and the right eyeball and the left eyeball were measured for the size with a caliper. The degree of axial myopia was evaluated based on the axial length and the greatest transverse diameter. The differences of the axial length and the greatest transverse diameter between the right eye and the left eye were calculated to indicate the degree of myopia. Between the groups treated with the above-mentioned drugs and the respective control groups, the degree of myopia induction was compared.

form-deprivation myopia = conditions: animal experiment level; cited from earlier work
myopia = conditions: 2-year clinical trial, children aged 8 to 12; cited from earlier work

In the case of `CN1[C@@H]2CC[C@H]1C[C@@H](OC(=O)C(CO)c1ccccc1)C2` (stereo partly shown) [Atropine], the Axial length extension (axial length extension) is given as “suppresses axial length extension” and the Progress of myopia (progress of myopia) is given as “statistically significant inhibition of the progress of myopia”.

For `O=S(=O)(c1cccc2c(O)nccc12)N1CCCNCC1` [Hydroxyfasudil, 1-(1-hydroxy-5-isoquinolinesulfonyl)homopiperazine], the “Axial length, average right-left difference” value [1] was 0.61* mm, the “Greatest transverse diameter, average right-left difference” value [1] was 0.91* mm and the “Axial length, average right-left difference” value ([1]; listed as hydroxyfasudil) was “significantly reduced”. For the same compound, the “Greatest transverse diameter, average right-left difference” value ([1]; listed as hydroxyfasudil) was “significantly reduced”, the “Axial length, average right-left difference” value [2] was 0.37* mm and the “Greatest transverse diameter, average right-left difference” value [2] was 0.48* mm. The “Axial length, average right-left difference” value ([2]; listed as hydroxyfasudil) was “significantly reduced” and the “Greatest transverse diameter, average right-left difference” value ([2]; listed as hydroxyfasudil) was “significantly reduced”.

For `CN1CCN(CC(=O)N2c3ccccc3C(=O)Nc3cccnc32)CC1` [Pirenzepine], the “Form-deprivation myopia (axial length extension)” value (form-deprivation myopia) is given as “prevented form-deprivation myopia”, the “Accommodative myopia (refraction of the lens)” value (myopia) is given as “significant difference” and the Axial length (myopia) is given as “no significant difference”.
